# Measured values reported in patent US20090312238A1, “Protection Against Oxidative Damage in Cells” (Florida Atlantic University, priority 2006, published 2009).
# B1: mammalian Trx: reduced mammalian Trx with mammalian Trx reductase; human Trx from Sigma, rat Trx reductase (TR3) (protein, UniProt P10599 2-105, looked up)
# Thioredoxin: VKQIESKTAFQEALDAAGDKLVVVDFSATWCGPCKMIKPFFHSLSEKYSNVIFLEVDVDDCQDVASECEVKCMPTFQFFKKGQKVGEFSGANKEKLEATINELV
# modifications: with rat Trx reductase
# Tests used:
# hMsrB3 = target: T1, hMsrB3 (Homo sapiens, UniProt Q8IXL7); assay: Colorimetric assay for Msr activity based on the reduction of DABS-met(o); assay type: biochemical; conditions: for activity of chelating agent in place of EDTA with Zn-MT: EGTA 5 or 20 mM, deferoxamine 5 mM, zincon 500 μM
# T1 construct: made in house; host or cells: BL21 E. coli
# T1 sequence (Q8IXL7 33-192): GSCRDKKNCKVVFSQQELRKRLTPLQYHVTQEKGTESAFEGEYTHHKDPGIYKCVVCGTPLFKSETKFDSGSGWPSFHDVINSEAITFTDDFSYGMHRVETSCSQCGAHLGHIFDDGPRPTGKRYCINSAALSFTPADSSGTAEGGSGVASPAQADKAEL
# Method: (§1) The reaction mixture (200 μl) to measure Msr activity contained 100 mM Tris-Cl pH 7.4, 100 nmoles of the indicated DABS-met(o) epimer (see Materials), either 15 mM DTT or the Trx regenerating system (Trx, 10 μg, Trx reductase, 2.4 μg, NADPH, 500 μM) and Msr enzyme as indicated. When the liver fractions (Zn-MT, T or T(o)) were tested, DTT was omitted and the Trx reducing system and 5 mM EDTA were added as indicated. Incubations were for 60 minutes at 37° C. unless noted otherwise. […] The quantitation of DABS-met formed employed a slight modification of an extraction procedure previously described by Etienne et al (Etienne, F., Resnick, L., Sagher, D., Brot, N. & Weissbach, H. (2003) Biochem Biophys Res Commun 312, 1005-1010) for the reduction of sulindac to sulindac sulfide by MsrA. The reactions were stopped by the addition of 200 μl of 1 M sodium acetate pH 6.0, followed by the addition of 100 μL of acetonitrile and 1 ml of benzene. After thorough shaking and centrifugation, the optical density of the benzene layer was read at 436 nm. […] Unless indicated otherwise, the results are presented as nmoles DABS-met formed in 60 minutes.
# eMsrA = target: T2, eMsrA (Escherichia coli, UniProt P0A744); assay: as above; assay type: biochemical, E. coli; conditions: for nmoles DABS-met: eMsrA 1.6 μg
# T2 construct: made in house; host or cells: E. coli
# T2 sequence (P0A744 whole entry): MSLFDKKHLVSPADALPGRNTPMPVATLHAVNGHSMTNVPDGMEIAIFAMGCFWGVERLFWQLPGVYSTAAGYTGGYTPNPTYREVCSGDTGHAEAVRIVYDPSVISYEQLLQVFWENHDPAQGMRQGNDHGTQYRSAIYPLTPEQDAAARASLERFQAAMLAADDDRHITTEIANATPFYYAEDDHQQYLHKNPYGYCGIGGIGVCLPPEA
# Method: as §1
# eMsrB [1] = target: T3, eMsrB (Escherichia coli, UniProt P0A746); assay: as above; assay type: biochemical, E. coli
# T3 construct: made in house; host or cells: E. coli
# Method: as §1
# bMsrA = target: T4, bMsrA (Bos taurus, UniProt P54149); assay: as above; assay type: biochemical, bovine
# T4 construct: made in house; host or cells: E. coli
# T4 sequence (P54149 21-233): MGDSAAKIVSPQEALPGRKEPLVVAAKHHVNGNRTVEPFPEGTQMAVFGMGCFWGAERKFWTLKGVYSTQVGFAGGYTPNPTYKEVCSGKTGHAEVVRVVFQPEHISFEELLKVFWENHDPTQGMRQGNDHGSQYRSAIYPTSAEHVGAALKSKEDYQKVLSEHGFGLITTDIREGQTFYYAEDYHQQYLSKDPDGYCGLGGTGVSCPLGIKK
# Method: as §1
# hMsrB2 = target: T5, hMsrB2 (Homo sapiens, UniProt Q9Y3D2); assay: as above; assay type: biochemical; conditions: for nmoles DABS-met: hMsrB2 2.7 μg
# T5 construct: made in house; host or cells: E. coli
# T5 sequence (Q9Y3D2 21-182): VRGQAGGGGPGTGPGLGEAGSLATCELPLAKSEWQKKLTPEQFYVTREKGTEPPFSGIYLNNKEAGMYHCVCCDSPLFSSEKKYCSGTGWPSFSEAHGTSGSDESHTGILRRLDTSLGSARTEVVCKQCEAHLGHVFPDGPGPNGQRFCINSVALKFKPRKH
# Method: as §1
# Zn-MT = conditions: appearance of free SH groups
# Method: Briefly, purified Zn-MT was dialyzed against 10 mM HCl (pH 2.0) containing 150 mM NaCl for 12 hours at 4° C. The protein after dialysis is reduced, metal-free T and appears stable when left at pH 2.0. To study the activity of T in the Msr system, T was neutralized and added to the reaction mixtures immediately before the incubations were initiated. To oxidize T, 0.75 volumes of 50 mM Tris base were added to the T sample to bring the pH to 8.5. Under these conditions, approximately 50% of the sulfhydryls will become oxidized after 4 hours at room temperature or 2 hours at 37° C. With longer incubations, the T(o) started to precipitate.
# Msr enzymes = assay: Msr activity assay, statements on the Msr enzymes as a group; assay type: biochemical; conditions: no Trx system or T
# Method: as §1
# MsrA = target: T6, MsrA (Rattus norvegicus, UniProt Q923M1); assay: MsrA activity in cardiomyocytes, reduction of sulindac to sulindac sulfide; assay type: cell-based; conditions: for amount of product (sulindac sulfide): primary neonatal rat cardiomyocytes, 400 μM sulindac
# T6 construct: endogenous in cells; host or cells: primary neonatal rat cardiomyocytes
# T6 sequence (Q923M1 21-233): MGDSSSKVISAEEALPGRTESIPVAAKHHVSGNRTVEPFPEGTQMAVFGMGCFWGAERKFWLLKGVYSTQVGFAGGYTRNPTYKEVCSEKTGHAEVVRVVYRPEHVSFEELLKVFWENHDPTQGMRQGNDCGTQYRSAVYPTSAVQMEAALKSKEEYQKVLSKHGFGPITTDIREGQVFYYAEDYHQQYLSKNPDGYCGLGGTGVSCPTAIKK
# Method: FIG. 10 is a graph showing selenocystamine (SeCm) can enhance MsrA activity in cardiomyocytes. Cardiomyocytes were incubated with 400 μM sulindac and indicated concentration of selenocystamine. Briefly, primary neonatal rat cardiomyocytes (approximately 10^6 cells per treatment) were incubated with sulindac and two different concentrations of selenocystamine. Sulindac is a substrate for MsrA, and the amount of the reduced product, sulindac sulfide, indicates the amount of MsrA activity. The amount of product is 2.7, 3.7 and 5.6 picomoles for 0, 5 μM and 50 μM selenocystamine, respectively. This amounts to a 37% and 107% stimulation.
# eMsrB [2] = target: T7, eMsrB (Escherichia coli, UniProt P0A746); assay: Colorimetric assay for Msr activity based on the reduction of DABS-met(o); assay type: biochemical, E. coli; remark: listed apart in the source
# T7 construct: made in house; host or cells: E. coli
# T7 sequence (P0A746 whole entry, looked up): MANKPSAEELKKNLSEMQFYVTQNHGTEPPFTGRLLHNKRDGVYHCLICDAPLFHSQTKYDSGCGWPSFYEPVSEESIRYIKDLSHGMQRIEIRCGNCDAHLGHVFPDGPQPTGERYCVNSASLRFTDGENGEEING
# Method: as §1
# T(o) = target: T8, T(o) (Bos taurus, UniProt P68301); assay: Reduction of T(o) by Trx, oxidation of NADPH followed at 340 nm; assay type: biochemical, bovine; conditions: FIG. 4; 100 μM NADPH, 26 μg Trx, 6 μg TrxB, 28 μg partially-oxidized T
# T8 construct: Fresh bovine liver was homogenized in 3 volumes of 50 mM Tris, pH 7.4; from tissue; host or cells: bovine liver
# T8 sequence (P68301 whole entry): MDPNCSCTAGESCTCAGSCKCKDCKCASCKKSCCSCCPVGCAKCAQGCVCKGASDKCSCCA
# Method: To study the reduction of T(o) by Trx, the reaction mixtures contained, in a total volume of 1 ml, 100 μM NADPH, 26 μg Trx, 6 μg TrxB and 28 μg of partially-oxidized T (see above). The oxidation of NADPH was followed at 340 nm at room temperature.
# [3] = Table 1, DABS-met-S-(o), 15 mM DTT or Trx regenerating system, 60 minutes at 37° C.
# [4] = Table 2, 20 nmoles Zn-MT with 5 mM EDTA, or 15 mM DTT
# [5] = Table 1, eMsrB 2.7 μg, DABS-met-R-(o), 15 mM DTT or Trx regenerating system, 60 minutes at 37° C.
# [6] = Table 1, bMsrA 2 μg, DABS-met-S-(o), 15 mM DTT or Trx regenerating system, 60 minutes at 37° C.
# [7] = Table 1, DABS-met-R-(o), 15 mM DTT or Trx regenerating system, 60 minutes at 37° C.
# [8] = Table 1, hMsrB3 2.3 μg, DABS-met-R-(o), 15 mM DTT or Trx regenerating system, 60 minutes at 37° C.
# [9] = mammalian Trx and mammalian Trx reductase
molecule,measurement,setting,value
"c1cnc2c(c1)ccc1cccnc12 [1,10-phenanthroline]","activity relative to EDTA, chelating agent in place of EDTA with Zn-MT",hMsrB3; 5 mM,about 40%
"O[C@@H](CS)[C@@H](O)CS [DTT, reference compound]",nmoles DABS-met,eMsrA; [3],46.2 nmol
same,nmoles DABS-met,eMsrA; [4],45.7 nmol
same,nmoles DABS-met,eMsrB [1]; [5],11.1 nmol
same,nmoles DABS-met,"eMsrB [1]; Table 2, eMsrB 5.4 μg, 20 nmoles Zn-MT with 5 mM EDTA, or 15 mM DTT",27.8 nmol
same,nmoles DABS-met,bMsrA; [6],30.0 nmol
same,nmoles DABS-met,"bMsrA; Table 2, bMsrA 2.0 μg, 20 nmoles Zn-MT with 5 mM EDTA, or 15 mM DTT",38.9 nmol
same,nmoles DABS-met,hMsrB2; [7],31.3 nmol
same,nmoles DABS-met,hMsrB2; [4],27.1 nmol
same,nmoles DABS-met,hMsrB3; [8],53.8 nmol
same,nmoles DABS-met,"hMsrB3; Table 2, hMsrB3 2.3 μg, 20 nmoles Zn-MT with 5 mM EDTA, or 15 mM DTT",53.7 nmol
same,nmoles DABS-met formed,"hMsrB3; experiment of Table 3, hMsrB3 2.3 μg, 15 mM DTT",52.7 nmol
"O=C(O)CN(CCN(CC(=O)O)CC(=O)O)CC(=O)O [EDTA, ethylenediaminetetraacetic acid]",effect of EDTA by itself on hMsrB3 activity,hMsrB3; EDTA alone,no significant effect
same,levels of EDTA giving optimal activity,hMsrB3; heated liver S-100 as reducing source,above 2.5 mM
same,time for removal of zinc from Zn-MT,Zn-MT,less than 10 minutes
same,zinc removed from Zn-MT,Zn-MT,> 90%
O=C(O)CN(CCOCCOCCN(CC(=O)O)CC(=O)O)CC(=O)O [EGTA],activity of chelating agent in place of EDTA with Zn-MT,hMsrB3,inactive
"NCC[Se][Se]CCN [SeC, selenocystamine]",stimulation by SeC above the Trx system alone,eMsrA; E. coli enzymes,less than a twofold stimulation
same,stimulation by SeC,"eMsrA; complete Trx system, eMsrA",10-20%
same,stimulation by SeC above the Trx system alone,eMsrB [1]; E. coli enzymes,less than a twofold stimulation
same,stimulation by SeC,"eMsrB [1]; complete Trx system, eMsrB",10-20%
same,increase of activity in the presence of SeC,"bMsrA; complete Trx system, bMsrA",more than 3 fold
same,final concentration of SeC at maximal stimulation,"hMsrB3; FIG. 7, NADPH and Trx reductase or T as primary reducing agent",50 µM
same,activity of SeC by itself,Msr enzymes,no activity
same,stimulation of MsrA activity,MsrA; 5 μM selenocystamine versus 0,37%
same,stimulation of MsrA activity,MsrA; 50 μM selenocystamine versus 0,107%
same,amount of product (sulindac sulfide),MsrA; 5 μM selenocystamine,3.7 picomoles
same,amount of product (sulindac sulfide),MsrA; 50 μM selenocystamine,5.6 picomoles
CC(=O)N(O)CCCCCNC(=O)CCC(=O)N(O)CCCCCNC(=O)CCC(=O)N(O)CCCCCN [deferoxamine],activity of chelating agent in place of EDTA with Zn-MT,hMsrB3,inactive
O=C(O)c1ccccc1NN=C(N=Nc1cc(S(=O)(=O)O)ccc1O)c1ccccc1 [zincon],activity of chelating agent in place of EDTA with Zn-MT,hMsrB3,inactive
Trx: thioredoxin overexpressed and purified from E. coli; used as Trx regenerating system with Trx reductase and NADPH,Ratio Trx/DTT,"eMsrA; Table 1, eMsrA",1.0
same,nmoles DABS-met,eMsrA; [3],46.8 nmol
same,Ratio Trx/DTT,"eMsrB [2]; Table 1, eMsrB",5.4
same,nmoles DABS-met,eMsrB [2]; [5],60.3 nmol
same,Ratio Trx/DTT,"bMsrA; Table 1, bMsrA",0.53
same,nmoles DABS-met,bMsrA; [6],15.8 nmol
same,Ratio Trx/DTT,"hMsrB2; Table 1, hMsrB2",0.03
same,nmoles DABS-met,hMsrB2; [7],0.8 nmol
same,activity with Trx relative to the activity seen with DTT,hMsrB2; hMsrB2,less than 10%
same,Ratio Trx/DTT,"hMsrB3; Table 1, hMsrB3",0.03
same,nmoles DABS-met,hMsrB3; [8],1.7 nmol
same,nmoles DABS-met,"hMsrB3; Table 3 line 2, hMsrB3 2.3 μg, no T(o), Trx + NADPH + Trx reductase",2.4 nmol
same,activity with Trx relative to the activity seen with DTT,hMsrB3; hMsrB3,less than 10%
same,oxidation of NADPH,T(o),"dependent on Trx, Trx reductase and T(o)"
B1,use of Trx from either source,eMsrA; [9],efficiently used
same,use of Trx from either source,eMsrB [2]; [9],efficiently used
same,activity with reduced mammalian Trx,hMsrB3; [9],very poor activity
